Source: patent publication US9879028B2, “Compounds that modulate EGFR activity and methods for treating or preventing conditions therewith” (Gatekeeper Pharmaceuticals, Inc., priority 2009, dated 2018)

What was measured:
lung cancer = lung cancer patients; cited from earlier work
[1] = system: EGFR Del 19/T790M Ba/F3 cells; test: MTS cell proliferation and growth assay in EGFR mutant Ba/F3 cells (Del 19/T790M); type: cell-based; details: Mus musculus, BaF3, 72 hours
Description: (§1) The EGFR and iERBB2 mutant Ba/F3 cells and the NIH-3T3 cells have been previously characterized (Engelman, J. A. et al. Cancer Res 67, 11924-32 (2007); Yuza, Y. et al. Cancer Biol Ther 6 (2007)). The EGFR C797S and the ERBB2 T798I mutations are introduced using site directed mutagenesis using the Quick Change Site-Directed Mutagenesis kit (Stratagene; La Jolla, Calif.) according to the manufacturer's instructions (Mukohara, T. et al. J Natl Cancer Inst 97, 1185-94 (2005)). The oligonucleotide sequences are available upon request. All constructs are confirmed by DNA sequencing. The constructs are shuttled into the retroviral vector JP1540 using the BD Creator™ System (BD Biosciences). Ba/F3 of NIH-3T3 cells are infected with retrovirus according to standard protocols, as described previously (Engelman, J. A. et al. Proc Natl Acad Sci USA 102, 3788-93 (2005); Zhao, J. J. et al. Cancer Cell 3, 483-95 (2003)). Stable populations are obtained by selection in puromycin (2 μg/ml).
(§2) Growth and inhibition of growth is assessed by MTS assay. […]
(§3) Activity of various compounds of the invention was determined in vitro in EGFR mutant Ba/F3 cells according to the procedures set forth in Example 1.

[2] = system: EGFR L858R/T790M Ba/F3 cells; test: MTS cell proliferation and growth assay in EGFR mutant Ba/F3 cells (L858R/T790M); type: cell-based; details: Mus musculus, BaF3, 72 hours
Description: as §1, §2, §3

IC50 [1] [nM] | IC50 [2] [nM] | SMILES | median time to tumor progression (lung cancer)
– | – | COc1cc2ncnc(Nc3ccc(F)c(Cl)c3)c2cc1OCCCN1CCOCC1 [gefitinib] | approximately 2 months
– | – | C#Cc1cccc(Nc2ncnc3cc(OCCOC)c(OCCOC)cc23)c1 [erlotinib] | approximately 2 months
435 | 688 | C=CC(=O)Nc1cccc(Oc2nc(Nc3ccc(N4CCN(C)CC4)cc3OC)nc3ccccc23)c1 [IV-1, N-(3-((2-((2-methoxy-4-(4-methylpiperazin-1-yl)phenyl)amino)quinazolin-4-yl)oxy)phenyl)acrylamide] | –
864 | 2160 | C=CC(=O)Nc1cccc(-c2csc3cnc(Nc4ccc(N5CCN(C)CC5)cc4OC)nc23)c1 [VIII-1, N-(3-(2-((2-methoxy-4-(4-methylpiperazin-1-yl)phenyl)amino)thieno[3,2-d]pyrimidin-7-yl)phenyl)acrylamide] | –
